Measurements from patent US5763423A, “Pharmaceutical compositions, novel uses, and novel form of tocopherylphosphocholine” (Clarion Pharmaeuticals Inc., priority 1996, dated 1998).
“Also recorded” adds a separate entry of the source.

How the values were obtained:
RAW 264.7 cells = assay: Chemiluminescence (CL) assay, inhibition of macrophage activation by PMA; conditions: for anti-inflammatory activity (in words): 1 to 30 μM; for inhibition at 1 µM / inhibition at 3 µM / inhibition at 10 µM / inhibition at 30 µM: Mus musculus, RAW264.7, read-out: % inhibition of macrophage activation by PMA
Poliovirus Type III [1] = assay type: cell-based; conditions: 100 μM, 48 hr
[2] = Liposome particle size by laser-light scattering (QELS); assay type: physicochemical; conditions: 10 micromoles
Description: […] The solution is transferred to a 16×120 mm screw-capped tube. The tube is placed, uncapped, inside a 1×8 inch boiling tube with B24/40 standard glass fitting. Inside the boiling tube, in the space between the boiling tube and the smaller screw-capped tube, there is a small amount of distilled water to aid thermal contact between the inner and outer tube. The boiling tube is placed on a rotary evaporator under reduced pressure to evaporate the chloroform and leave the lipid as a thin film in the lower portion of the screw-capped tube. The boiling tube is partly immersed in a water bath at 37° C. during the evaporation to aid the process.
(§1) Once a thin film has been formed, the screw-capped tube is removed from the boiling tube, and one ml. of aqueous solution is added to it. The tube is capped and immersed in a water bath at 75° C. to aid swelling of the lipid. Swelling of the film is observed to occur when the film becomes cloudy, and is, with agitation, dislodged from the walls of the tube to give a cloudy suspension in the aqueous medium. This suspension is found to consist of liposomes by the application of two techniques. First, laser-light scattering, or QELS, reveal the presence of particles of 658 nm in diameter in one determination, 1468 nm in another.
In a second preparation, 10 micromoles of CPR 2001 are taken through the identical procedure described above. […]

Cryptococcus neoformans = assay: Antifungal assay, Cryptococcus neoformans; assay type: cell-based
Method: (§2) 1. 10^4 Cells (either C. albicans or C. neoformans) are placed in wells of a 96-well plate within a total volume of 90 μl. Cells are grown in RPMI-1640 plus 10% FCS.
(§3) 2. Add 10 μl of control or drug to be evaluated (CPR-2001):
(§4) Fungizone (2.5 μg/ml and 5.0 μg/ml); and
(§5) 3. Incubate for 48 hours at 37° C.
(§6) 5. Plate onto Sabourand plates and incubate overnight at 37° C.; and
(§7) 6. Count and record colonies.
(§8) All samples are tested in duplicate in two separate experiments. The data are then averaged to obtain the following results in Table 2.

Candida albicans = assay: Antifungal assay, Candida albicans; assay type: cell-based
Method: as §2, §3, §4, §5, §6, §7, §8

[3] = system: Buffalo Green Monkey Kidney cells; assay: Toxicity to uninfected cells (rounding and/or detachment, 24 hr); assay type: cell-based; set-up: key to Toxicity 24 hr: Not toxic
Method: (§9) 1. Buffalo Green Monkey Kidney cells, obtained from Dr. G. Sedmak, City of Milwaukee, Public Health Department Virology Laboratory, are plated at a density of 7×10^4 cells per well in a standard flat bottom 96 well cell culture plate. The cells are contained in a volume of 200 μl Dulbecco's Modified Eagles Medium (DMEM) containing 10% serum [1:1 mixture of fetal bovine serum and defined supplemented calf serum (Hyclone, Inc., Ogden, Utah), 10 mM HEPES buffer (pH 7.2), 100 U/ml penicillin and 100 μg/ml streptomycin sulfate]. HEPES and antibiotics are obtained from Sigma Chemical Co. (St. Louis, Mo.). Two wells are plated for each of the following samples: compound CPR-2001, cell control (cells only), virus control (cells infected but not treated), vehicle control (solvent for compound, 9:1 dimethylsulfoxide:ethanol), and cell counts.
(§10) 2. The cultures are incubated at 37° C. with 5% CO2 until a monolayer of cells is formed on the bottom of each well (usually overnight).
(§11) 3. The media is removed from the wells by aspiration. The cells are refed with media containing the desired concentration of test compound CPR-2001 (100 μM final concentration), media only (cell control and virus control samples), or solvent (9:1, DMSO:ethanol) at a final concentration of 0.33%. Compound CPR-2001 is dissolved at a stock concentration of 30 mM and diluted 300-fold. The cell count wells receive media only.
(§12) 4. The cultures are incubated for 24 hr at 37° C. with 5% CO2.
5. At the end of 24 hr, each well is scored for the presence of toxicity (cells exposed to compound but not infected) as indicated by rounding and/or detachment of the cells from the plate. Scoring is as follows: 1+, 25% of cells rounded; 2+, 25 to 50% of cells rounded; 3+, 75% of cells rounded; 4+, 100% of cells rounded.

Poliovirus Type III [4] = assay type: cell-based; conditions: 100 μM, 48 hr; remark: listed apart in the source
[5] = Electron microscopy of liposomes; assay type: physicochemical
Method: Five micromoles of CPR-2001 are dissolved in about 1 ml. of chloroform. The solution is transferred to a 16×120 mm screw-capped tube. The tube is placed, uncapped, inside a 1×8 inch boiling tube with B24/40 standard glass fitting. Inside the boiling tube, in the space between the boiling tube and the smaller screw-capped tube, there is a small amount of distilled water to aid thermal contact between the inner and outer tube. The boiling tube is placed on a rotary evaporator under reduced pressure to evaporate the chloroform and leave the lipid as a thin film in the lower portion of the screw-capped tube. The boiling tube is partly immersed in a water bath at 37° C. during the evaporation to aid the process.
as §1, with “another. […]” for “another.”

[6] = Anti-PAF activity in anesthetized guinea pigs (total pulmonary resistance); assay type: in vivo; conditions: for TPR after PAF, % of Controls: PAF controls 183.36; for PAF antagonist activity / TPR (in words): 1, 3, 10, 30 and 50 μM per kg
[7] = system: Herpes simplex virus type-1; assay: Inhibition of cytopathic effects (CPE), Herpes Simplex Virus Type 1; assay type: cell-based, HSV-1 KOS strain (in Buffalo Green Monkey Kidney cells); conditions: 100 μM, 48 hr
Method: (§13) The first assay is for inhibition of cytopathic effects (CPE) caused by viral infection of the cells and the second is a standard viral yield reduction assay. This yield reduction assay is a modification of the general method described by Erlich et al., Ann. NY Acad. Sci. 130, 5-16 (1965).
as §9
2. […]
9. At the end of 48 hr, each well is scored for the presence of CPE as indicated by rounding and/or detachment of the cells from the plate. […]

[8] = system: Herpes simplex virus type-1; assay: Viral yield reduction assay, Herpes Simplex Virus Type 1; assay type: cell-based, HSV-1 KOS strain (in Buffalo Green Monkey Kidney cells)
Method: as §13, §9, §10, §11, §12
7. […]
10. After scoring for viral CPE, the yield of infectious virus in each well is measured by standard plaque assay on Vero cells (ATCC #CCL81). […] Excess stain is rinsed from the cells, the number of plaques are counted and the yield of virus in the original sample is calculated.

[9] = increasing concentration, 1 to 100 μg/ml

Cc1c(C)c2c(c(C)c1OP(=O)([O-])OCC[N+](C)(C)C)CCC(C)(CCCC(C)CCCC(C)CCCC(C)C)O2 (stereo not drawn) [CPR-2001, α-tocopherolphosphocholine]
anti-inflammatory activity (in words) (RAW 264.7 cells): marked dose-related anti-inflammatory activity | anti-inflammatory activity (in words) (RAW 264.7 cells; listed as CPR2001): antiinflammatory activity markedly increases | inhibition at 1 µM (RAW 264.7 cells): 5% | inhibition at 3 µM (RAW 264.7 cells): 13% | inhibition at 10 µM (RAW 264.7 cells): 31% | inhibition at 30 µM (RAW 264.7 cells): 56% | CPE (Poliovirus Type III [1]): 2+ (25 to 50% of cells rounded) | development of viral CPE (in words) (Poliovirus Type III [1]): inhibits the development of viral CPE | particle size of liposomes (QELS) ([2]; after about 10 minutes sonication at 75° C.): 102 nm | particle size of liposomes (QELS) ([2]; before sonication): greater than 5,000 nm | inhibition at 1 µg/mL (Cryptococcus neoformans; Cryptococcus neoformans, 1 mcg/ml, 48 hours): 10% | inhibition at 10 µg/mL (Cryptococcus neoformans; Cryptococcus neoformans, 10 mcg/ml, 48 hours): 40% | inhibition at 100 µg/mL (Cryptococcus neoformans; Cryptococcus neoformans, 100 mcg/ml, 48 hours): 73% | percent of fungal inhibition (in words) (Cryptococcus neoformans; [9]): the percent of fungal inhibition also increases | inhibition at 1 µg/mL (Candida albicans; Candida albicans, 1 mcg/ml, 48 hours): 25% | inhibition at 10 µg/mL (Candida albicans; Candida albicans, 10 mcg/ml, 48 hours): 40% | inhibition at 100 µg/mL (Candida albicans; Candida albicans, 100 mcg/ml, 48 hours): 76% | percent of fungal inhibition (in words) (Candida albicans; [9]): the percent of fungal inhibition also increases | Toxicity ([3]; Table 1A, 100 μM, 24 hr): N-± | Toxicity 24 hr ([3]; Table 1B, 100 μM, 24 hr): N | Toxicity (in words) ([3]; at antivirally effective levels): No apparent cytotoxicity; also recorded: not toxic | Titer (Poliovirus Type III [4]): 2.7 × 10^6 pfu/ml | Fold-Reduction of virus yield (Poliovirus Type III [4]; compared to virus control): 10.7 fold | structure of particles by electron microscopy ([5]; 5 micromoles, not sonicated): characteristic concentric lamellar structure of liposomes | structure of particles by electron microscopy ([5]; 10 micromoles, after sonication): still multilamellar, but smaller | TPR after PAF, % of Controls ([6]; 1 μM/kg i.v.): 193.75 % of Controls | TPR after PAF, % of Controls ([6]; 3 μM/kg i.v.): 124.58 % of Controls | TPR after PAF, % of Controls ([6]; 10 μM/kg i.v.): 98.19 % of Controls | TPR after PAF, % of Controls ([6]; 30 μM/kg i.v.): 19.60 % of Controls | TPR after PAF, % of Controls ([6]; 50 μM/kg i.v.): 8.33 % of Controls | PAF antagonist activity / TPR (in words) [6]: Decreases of TPR in a dose-related way | PAF antagonist activity / TPR (in words) ([6]; listed as α-tocopherolphosphocholine): marked PAF antagonist activity | Viral CPE [7]: 1+ (<25% of cells rounded) | development of viral cytopathic effect (in words) [7]: markedly inhibits the development of viral cytopathic effect | Virus Yields (48 Hours) ([8]; 100 μM): 5.5 × 10^4 PFU/ml | Reduction of virus yield (fold reduction) ([8]; 100 μM, 48 hr, compared to virus and vehicle control): 18 fold | activity at 100 µM ([8]; Human alphaherpesvirus 1, BGMK, in Chlorocebus sabaeus, 48 hr, virus control 1.00, read-out: Virus Yields (48 Hours), Yield): 5.5%

Cc1c(C)c2c(c(C)c1O)CCC(C)(CCCC(C)CCCC(C)CCCC(C)C)O2 (stereo not drawn) [α-Tocopherol, α-tocopherol]
inhibition at 1 µM (RAW 264.7 cells): -3% | inhibition at 3 µM (RAW 264.7 cells): -6% | inhibition at 10 µM (RAW 264.7 cells): -6% | inhibition at 30 µM (RAW 264.7 cells): -14%

CC1=C(/C=C/C(C)=C/C=C/C(C)=C/C(=O)O)C(C)(C)CCC1 [Retinoic Acid, retinoic acid]
inhibition at 1 µM (RAW 264.7 cells): 2% | inhibition at 3 µM (RAW 264.7 cells): 6% | inhibition at 10 µM (RAW 264.7 cells): 3% | inhibition at 30 µM (RAW 264.7 cells): 6%
